Laboratory results as given in patent publication US20190209506A1, “METHODS OF REDUCING OR PREVENTING OXIDATION OF LDL OR LIPID MEMBRANES IN A SUBJECT IN NEED THEREOF” (Amarin Pharmaceuticals Ireland Limited, priority 2018, published 2019).
Values joined by “and” are separate entries in the source; they are usually repeats but may differ in a detail not shown here. Identical values can stand only once.

Assays:
human sdLDL [1] = test: Copper-induced sdLDL oxidation, TBARS after 2 hr (Example 6); type: biochemical
Protocol: (§1) Venous blood was collected from healthy volunteers into vacutainer tubes containing sodium EDTA. Plasma was separated by centrifugation at 3000 g for 25 min at 4° C. and adjusted to a density of 1.020 g/mL with KBr. Triglyceride-rich lipoproteins (TGRL) and LDL fractions were then isolated by sequential centrifugation at 70,000 rpm at 4° C. in a Beckman LE-80 ultracentrifuge using a Beckman 50.4Ti rotor (Beckman Coulter, Inc., Fullerton, Calif.). The TGRL fraction (with a relative density of <1.020) was aspirated from the top of the centrifugate and discarded, leaving an LDL-enriched infranate (with a relative density of 1.020 to 1.063). The plasma LDL fraction was further fractionated into LDL1, LDL2, LDL3, and LDL4 (sdLDL) subfractions with relative densities of 1.020 to 1.035, 1.035 to 1.050, 1.050 to 1.063, and 1.063 to 1.075, respectively. The sdLDL subfraction was retained for additional experimentation. Plasma and lipoprotein fractions were maintained at 4° C. and protected from excessive exposure to light. Prior to oxidation experiments, EDTA was removed from the lipoprotein fraction using PD-10 desalting columns (GE Healthcare, Piscataway N.J.). After equilibration of the column with phosphate buffered saline (PBS), 2.5 mL of the lipoprotein fraction was loaded on the column and the flow-through discarded. The lipoprotein was then eluted with 3 mL of PBS. The LDL fractions were further diluted with PBS to obtain a 100 μg/mL apoB100 concentration.
LDL and sdLDL subfractions (0.6 mL each) were incubated with either 10 μL vehicle (ethanol) or 10 μL drug stock solution for 30 min to 1 hr at 37° C. Oxidation was initiated by the addition of 10 μM CuSO4. After 2 hr, 100 μL aliquots were removed from each subfraction and combined with 1.0 mL thiobarbituric acid (0.5%), 10 μL trichloroacetic acid (5%), 10 μL BHT (5 mg/mL in methanol), and 10 μL EDTA (5 mM). […]. Sample TBARS concentrations were determined spectrophotometrically by measuring sample absorbances against a standard curve derived from the hydrolysis of 1,1,3,3-tetramethoxypropane.

human LDL = test: Copper-induced oxidation of unfractionated LDL, TBARS after 2 hr (Example 6); type: biochemical
Protocol: as §1, with “Prior to oxidation experiments, EDTA was removed from the lipoprotein fraction using PD-10 desalting columns (GE Healthcare, Piscataway N.J.). After equilibration of the column with phosphate buffered saline (PBS), 2.5 mL of the lipoprotein fraction was loaded on the column and the flow-through discarded. The lipoprotein was then eluted with 3 mL of PBS. The LDL fractions were further diluted with PBS to obtain a 100 μg/mL apoB100 concentration.” left out
LDL and sdLDL subfractions (0.6 mL each) were incubated with either 10 μL vehicle (ethanol) or 10 μL drug stock solution for 30 min to 1 hr at 37° C. […] Sample TBARS concentrations were determined spectrophotometrically by measuring sample absorbances against a standard curve derived from the hydrolysis of 1,1,3,3-tetramethoxypropane.

human sdLDL [2] = test: Glucose-induced sdLDL oxidation, MDA/TBARS (Example 10); type: biochemical; settings: glucose 200 mg/dL
Protocol: Vitamin E (α-tocopherol) purchased from Sigma-Aldrich was prepared in ethanol at 1.0 mM (ε=3.06×10^4M^−1 cm^−1 at 294 nm) prior to experimental use. Test compounds were further diluted in ethanol or aqueous buffer as needed. Phosphate Buffered Saline (PBS) purchased from Sigma-Aldrich was prepared in double distilled water at 10 mM (138 mM NaCl, 2.7 mM KCl, pH 7.4). Glucose prepared in PBS was added to test samples to achieve a final concentration of 11.0 mM (200 mg/dL).
LDL and sdLDL were isolated from the plasma of healthy volunteers by iodixanol density gradient ultracentrifugation and adjusted to a final apolipoprotein concentration of 10 mg/mL. […] Sample aliquots were incubated at 100° C. for 30 minutes and then assayed for the formation of thiobarbituric acid-reactive substances (TBARS), having a molar absorptivity (ε) value of 1.56×10^5 M^−1 cm^−1 at 532 nm and were derived principally from the reaction of thiobarbituric acid with malondialdehyde (MDA). Lipid oxidation was measured by the colorimetric detection of malondialdehyde (MDA), a marker of oxidative stress.

human sdLDL [3] = test: Copper-induced sdLDL oxidation, TBARS (Example 7); type: biochemical
Protocol: An experiment to study the antioxidant effect of EPA in LDL and small dense LDL (“sdLDL”) was performed. LDL and sdLDL were isolated from the plasma of healthy volunteers by iodixanol density gradient ultracentrifugation, and adjusted to a final apolipoprotein concentration of 2 mg/mL. […] Lipid oxidation was initiated with 10 μM CuSO4 and monitored by the colorimetric detection of thiobarbituric acid reactive substances (TBARS) for 1 hr. Vitamin E was also incubated with sample aliquots as a positive control.

[4] = Glucose- and peroxidation-induced cholesterol domain formation, small angle x-ray diffraction (Example 4); settings: 1:30 drug-to-phospholipid, glucose 200 mg/dL
Protocol: Samples were shell-dried under nitrogen gas and placed under vacuum for 1 h to remove residual solvent. […] Lipid suspensions were then vortexed for 3 min at ambient temperature to form MLVs. […] Membrane lipid vesicles were oriented for x-ray diffraction analysis as described by others (e.g., Herbette et al., Biophys. […] Briefly, a 100 μL aliquot (containing 250 μg MLV) was aspirated from each sample and transferred to a Lucite® sedimentation cell fitted with an aluminum foil substrate upon which a given sample could be collected by centrifugation. Samples were then loaded into a Sorvall AH-629 swinging bucket rotor (DuPont Corp., Wilmington, Del.) and centrifuged at 35,000 g, 5° C., for 90 min. After centrifugal orientation, sample supernatants were aspirated and aluminum foil substrates, each supporting a single membrane pellet, were removed from the sedimentation cells. […] The d-space for any given membrane multibilayer is a measurement of the unit cell periodicity of the membrane lipid bilayer (e.g., the distance from the center of one lipid bilayer to the next including surface hydration), and is calculated from Bragg's Law, […], where h is the diffraction order, λ is the wavelength of the x-ray radiation (1.54 Å), d is the membrane lipid bilayer unit cell periodicity, and θ is the Bragg angle equal to one-half the angle between the incident beam and scattered beam. […]

SMILES | reduction of TBARS levels compared to vehicle-treated controls (human sdLDL [1]; 10.0 μM) [%] | reduction of TBARS levels compared to vehicle-treated controls (human sdLDL [1]; lowest dose tested (1.0)) [%] | reduction of TBARS levels (human LDL; highest concentration tested (10.0), unfractionated LDL) [%] | inhibition of sdLDL oxidation compared to vehicle controls (human sdLDL [2]; 10.0 μM) [%] | sdLDL oxidation (formation of MDA) (human sdLDL [2]; 10.0 μM) [µM] | IC50 (human sdLDL [2]) [µM] | inhibition of sdLDL oxidation (human sdLDL [3]; 1.0 μM, 1 hr, vs vehicle) [%] | inhibition of TBARS formation / sdLDL oxidation (human sdLDL [3]; 10 μM, 1 hr, vs vehicle, 10 µM) | effect on sdLDL oxidation compared to vehicle or DHA (human sdLDL [3]; 10.0 μM, after 4 hours) | IC50 (human sdLDL [3]; 1 hr) [µM] | inhibition of relative cholesterol domain peak intensity ([4]; 96-hour time point, vs vehicle or vitamin E) | effect on sdLDL oxidation (human sdLDL [1]; concentrations 1.0 μM to 10.0 μM) | effect on LDL oxidation (human LDL; 1.0 μM to 10.0 μM, data not shown) | effect on glucose-induced sdLDL oxidation (human sdLDL [2]; 10 μM, 1 hr) | increase of sdLDL oxidation compared to glucose-treated controls (human sdLDL [2]; 10 μM, 1 hr) [%] | effect on sdLDL oxidation compared to vehicle-treated controls (human sdLDL [3]; 10 μM, 1 hour) | effect on cholesterol domain formation compared to control ([4]; any experimental time point)
CC/C=C\C/C=C\C/C=C\C/C=C\C/C=C\CCCC(=O)O [EPA, cis-5,8,11,14,17-eicosapentaenoic acid] | 57 | 13 | 17 | 94 | 0.2 ± 0.1 | < 1 | 19±8 | 93±2% and 92±8% | significantly inhibited sdLDL oxidation | ~2 | more than 99% | – | – | – | – | – | –
Cc1c(C)c2c(c(C)c1O)CC[C@@](C)(CCC[C@H](C)CCC[C@H](C)CCCC(C)C)O2 [vitamin E, α-tocopherol, reference compound] | 26 | – | – | – | – | – | – | – | – | – | – | did not inhibit sdLDL oxidation except at the highest concentration | did not inhibit LDL oxidation at any concentration | failed to inhibit sdLDL oxidation | 63 | no significant effect on sdLDL oxidation | no significant effect on cholesterol domain formation
